# Experimental data: ChEMBL document CHEMBL1909046, “DrugMatrix in vitro pharmacology data”
# Molecular target: T1, Amine oxidase [flavin-containing] A (Homo sapiens, UniProt P21397)
# T1 sequence (P21397 whole entry): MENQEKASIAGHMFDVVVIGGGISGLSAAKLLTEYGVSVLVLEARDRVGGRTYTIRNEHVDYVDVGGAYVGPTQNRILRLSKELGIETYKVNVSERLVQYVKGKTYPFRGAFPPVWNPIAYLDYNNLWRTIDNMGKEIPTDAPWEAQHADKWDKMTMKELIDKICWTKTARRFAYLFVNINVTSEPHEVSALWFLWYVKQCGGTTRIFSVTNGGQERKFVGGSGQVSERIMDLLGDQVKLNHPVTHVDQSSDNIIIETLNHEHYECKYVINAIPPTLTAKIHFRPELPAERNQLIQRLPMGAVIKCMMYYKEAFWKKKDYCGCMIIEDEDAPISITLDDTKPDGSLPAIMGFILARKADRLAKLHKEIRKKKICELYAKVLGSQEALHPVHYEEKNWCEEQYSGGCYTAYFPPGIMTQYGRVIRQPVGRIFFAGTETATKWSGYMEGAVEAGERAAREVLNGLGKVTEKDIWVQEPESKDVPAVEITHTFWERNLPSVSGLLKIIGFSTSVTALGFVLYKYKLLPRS
# Test: DRUGMATRIX: Monoamine Oxidase MAO-A enzyme inhibition (substrate: Kynuramine)
# Set-up: species or system BTI-TN-5B1-4
# Details: bti-tn-5b1-4; Not Active = under 50% inhibition at 10 µM
row,SMILES,IC50
1,CC(C)C[C@H]1C(=O)N2CCC[C@H]2[C@]2(O)O[C@](NC(=O)[C@@H]3C=C4c5cccc6[nH]cc(c56)C[C@H]4N(C)C3)(C(C)C)C(=O)N12 [ERGOCRYPTINE],Not Active
2,C[C@]12CC[C@@H]3c4ccc(O)cc4CC[C@H]3[C@@H]1C[C@@H](O)[C@@H]2O [ESTRIOL],Not Active
3,C#C[C@]1(O)CC[C@H]2[C@@H]3CCC4=CC(=O)CC[C@]4(C)[C@H]3CC[C@@]21C [ETHISTERONE],Not Active
4,CC(O)(P(=O)(O)O)P(=O)(O)O [ETIDRONIC ACID],Not Active
5,CC(C)(C(=O)O)c1ccc(C(O)CCCN2CCC(C(O)(c3ccccc3)c3ccccc3)CC2)cc1 (stereo not drawn) [FEXOFENADINE],Not Active
6,CN1CCN(c2c(F)cc3c(=O)c(C(=O)O)cn(CCF)c3c2F)CC1 [FLEROXACIN],Not Active

# Molecular target: Sodium-dependent dopamine transporter (Homo sapiens, UniProt Q01959)
# Sequence (Q01959 whole entry): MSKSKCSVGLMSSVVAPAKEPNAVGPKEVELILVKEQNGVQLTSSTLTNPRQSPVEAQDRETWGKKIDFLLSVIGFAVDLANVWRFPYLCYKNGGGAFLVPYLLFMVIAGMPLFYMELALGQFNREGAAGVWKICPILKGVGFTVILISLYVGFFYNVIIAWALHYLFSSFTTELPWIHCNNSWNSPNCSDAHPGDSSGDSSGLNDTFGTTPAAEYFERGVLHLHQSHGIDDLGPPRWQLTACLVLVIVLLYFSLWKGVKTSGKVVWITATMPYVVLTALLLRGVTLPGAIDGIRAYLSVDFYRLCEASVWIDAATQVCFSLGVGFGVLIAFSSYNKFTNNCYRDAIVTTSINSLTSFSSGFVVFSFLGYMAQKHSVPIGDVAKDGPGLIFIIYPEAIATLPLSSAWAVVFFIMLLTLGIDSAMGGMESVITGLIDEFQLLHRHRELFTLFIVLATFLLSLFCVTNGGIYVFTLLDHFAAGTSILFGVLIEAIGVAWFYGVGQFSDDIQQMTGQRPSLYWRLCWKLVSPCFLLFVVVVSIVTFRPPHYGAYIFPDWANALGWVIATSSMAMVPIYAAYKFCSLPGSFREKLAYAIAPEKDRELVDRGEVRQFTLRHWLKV
# Test: DRUGMATRIX: Dopamine Transporter radioligand binding (ligand: [125I] RTI-55)
# Assay type: cell membranes, CHO-K1, Membrane
# Details: cho-k1; Not Active = under 50% inhibition at 10 µM
row,SMILES,IC50
1,CC(C)C[C@H]1C(=O)N2CCC[C@H]2[C@]2(O)O[C@](NC(=O)[C@@H]3C=C4c5cccc6[nH]cc(c56)C[C@H]4N(C)C3)(C(C)C)C(=O)N12 [ERGOCRYPTINE],Not Active
2,C[C@]12CC[C@@H]3c4ccc(O)cc4CC[C@H]3[C@@H]1C[C@@H](O)[C@@H]2O [ESTRIOL],Not Active
3,C#C[C@]1(O)CC[C@H]2[C@@H]3CCC4=CC(=O)CC[C@]4(C)[C@H]3CC[C@@]21C [ETHISTERONE],Not Active
4,CC(O)(P(=O)(O)O)P(=O)(O)O [ETIDRONIC ACID],Not Active
5,CC(C)(C(=O)O)c1ccc(C(O)CCCN2CCC(C(O)(c3ccccc3)c3ccccc3)CC2)cc1 (stereo not drawn) [FEXOFENADINE],Not Active
6,CN1CCN(c2c(F)cc3c(=O)c(C(=O)O)cn(CCF)c3c2F)CC1 [FLEROXACIN],Not Active

# Molecular target: T2, Alpha-1D adrenergic receptor (Homo sapiens, UniProt P25100); further: in other assays of this panel Not Active means under 50% inhibition at 10 µM
# T2 sequence (P25100 whole entry): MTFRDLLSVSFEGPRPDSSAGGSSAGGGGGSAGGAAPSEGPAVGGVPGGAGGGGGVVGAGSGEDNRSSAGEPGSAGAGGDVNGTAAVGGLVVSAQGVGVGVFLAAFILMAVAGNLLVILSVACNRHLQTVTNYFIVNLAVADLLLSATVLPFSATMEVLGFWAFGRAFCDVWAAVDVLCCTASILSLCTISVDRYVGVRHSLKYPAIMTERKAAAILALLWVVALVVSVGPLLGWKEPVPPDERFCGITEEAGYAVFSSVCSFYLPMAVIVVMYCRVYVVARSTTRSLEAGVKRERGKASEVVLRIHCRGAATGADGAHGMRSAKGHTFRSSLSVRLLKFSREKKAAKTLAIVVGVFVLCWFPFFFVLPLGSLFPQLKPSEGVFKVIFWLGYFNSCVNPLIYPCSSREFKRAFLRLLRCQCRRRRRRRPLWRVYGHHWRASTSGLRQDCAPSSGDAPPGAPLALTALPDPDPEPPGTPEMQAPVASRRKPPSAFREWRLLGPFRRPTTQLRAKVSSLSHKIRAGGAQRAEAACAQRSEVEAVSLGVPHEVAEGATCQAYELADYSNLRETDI
# Assay type: cell membranes, HEK293, Membrane
# Details: hek293
row,SMILES,IC50
1,C[C@]12CC[C@@H]3c4ccc(O)cc4CC[C@H]3[C@@H]1C[C@@H](O)[C@@H]2O [ESTRIOL],Not Active
2,C#C[C@]1(O)CC[C@H]2[C@@H]3CCC4=CC(=O)CC[C@]4(C)[C@H]3CC[C@@]21C [ETHISTERONE],Not Active
3,CC(O)(P(=O)(O)O)P(=O)(O)O [ETIDRONIC ACID],Not Active
4,CC(C)(C(=O)O)c1ccc(C(O)CCCN2CCC(C(O)(c3ccccc3)c3ccccc3)CC2)cc1 (stereo not drawn) [FEXOFENADINE],Not Active
5,CN1CCN(c2c(F)cc3c(=O)c(C(=O)O)cn(CCF)c3c2F)CC1 [FLEROXACIN],Not Active

# Same assay, conditions: read-out: IC50
row,SMILES,IC50 [nM]
1,CC(C)C[C@H]1C(=O)N2CCC[C@H]2[C@]2(O)O[C@](NC(=O)[C@@H]3C=C4c5cccc6[nH]cc(c56)C[C@H]4N(C)C3)(C(C)C)C(=O)N12 [ERGOCRYPTINE],48

# Same assay, conditions: read-out: Ki
row,SMILES,Ki [nM]
1,CC(C)C[C@H]1C(=O)N2CCC[C@H]2[C@]2(O)O[C@](NC(=O)[C@@H]3C=C4c5cccc6[nH]cc(c56)C[C@H]4N(C)C3)(C(C)C)C(=O)N12 [ERGOCRYPTINE],24

# Molecular target: T3, Neuropeptide Y receptor type 1 (Homo sapiens, UniProt P25929); further: in other assays of this panel Not Active means under 50% inhibition at 10 µM
# T3 sequence (P25929 whole entry): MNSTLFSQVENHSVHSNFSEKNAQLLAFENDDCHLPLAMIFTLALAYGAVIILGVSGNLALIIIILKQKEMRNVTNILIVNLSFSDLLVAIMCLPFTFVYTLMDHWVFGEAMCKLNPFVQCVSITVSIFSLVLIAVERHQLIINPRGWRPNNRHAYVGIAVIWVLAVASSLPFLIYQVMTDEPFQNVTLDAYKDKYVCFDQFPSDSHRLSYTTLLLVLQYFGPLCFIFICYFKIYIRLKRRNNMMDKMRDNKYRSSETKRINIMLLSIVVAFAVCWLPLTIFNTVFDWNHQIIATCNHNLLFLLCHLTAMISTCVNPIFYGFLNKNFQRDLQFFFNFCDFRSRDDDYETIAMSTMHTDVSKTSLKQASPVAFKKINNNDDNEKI
# Assay type: cell membranes, Membrane
# Details: sk-n-mc
row,SMILES,IC50
1,CC(C)C[C@H]1C(=O)N2CCC[C@H]2[C@]2(O)O[C@](NC(=O)[C@@H]3C=C4c5cccc6[nH]cc(c56)C[C@H]4N(C)C3)(C(C)C)C(=O)N12 [ERGOCRYPTINE],Not Active
2,C[C@]12CC[C@@H]3c4ccc(O)cc4CC[C@H]3[C@@H]1C[C@@H](O)[C@@H]2O [ESTRIOL],Not Active
3,C#C[C@]1(O)CC[C@H]2[C@@H]3CCC4=CC(=O)CC[C@]4(C)[C@H]3CC[C@@]21C [ETHISTERONE],Not Active
4,CC(O)(P(=O)(O)O)P(=O)(O)O [ETIDRONIC ACID],Not Active
5,CC(C)(C(=O)O)c1ccc(C(O)CCCN2CCC(C(O)(c3ccccc3)c3ccccc3)CC2)cc1 (stereo not drawn) [FEXOFENADINE],Not Active
6,CN1CCN(c2c(F)cc3c(=O)c(C(=O)O)cn(CCF)c3c2F)CC1 [FLEROXACIN],Not Active

# Molecular target: T4, B2 bradykinin receptor (Homo sapiens, UniProt P30411); further: in other assays of this panel Not Active means under 50% inhibition at 10 µM
# T4 sequence (P30411 whole entry): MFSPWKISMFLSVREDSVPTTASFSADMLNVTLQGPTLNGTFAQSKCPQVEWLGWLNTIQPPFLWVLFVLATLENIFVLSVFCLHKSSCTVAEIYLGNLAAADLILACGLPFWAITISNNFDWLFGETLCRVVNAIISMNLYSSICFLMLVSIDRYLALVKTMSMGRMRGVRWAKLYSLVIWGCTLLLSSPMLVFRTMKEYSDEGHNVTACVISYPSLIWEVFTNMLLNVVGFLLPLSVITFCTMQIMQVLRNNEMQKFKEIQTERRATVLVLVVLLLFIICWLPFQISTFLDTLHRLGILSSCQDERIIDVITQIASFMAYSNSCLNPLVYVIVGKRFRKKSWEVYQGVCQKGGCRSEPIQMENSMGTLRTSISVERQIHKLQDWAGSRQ
# Assay type: cell membranes, Membrane
# Details: chem-1
row,SMILES,IC50
1,CC(C)C[C@H]1C(=O)N2CCC[C@H]2[C@]2(O)O[C@](NC(=O)[C@@H]3C=C4c5cccc6[nH]cc(c56)C[C@H]4N(C)C3)(C(C)C)C(=O)N12 [ERGOCRYPTINE],Not Active
2,C[C@]12CC[C@@H]3c4ccc(O)cc4CC[C@H]3[C@@H]1C[C@@H](O)[C@@H]2O [ESTRIOL],Not Active
3,C#C[C@]1(O)CC[C@H]2[C@@H]3CCC4=CC(=O)CC[C@]4(C)[C@H]3CC[C@@]21C [ETHISTERONE],Not Active
4,CC(O)(P(=O)(O)O)P(=O)(O)O [ETIDRONIC ACID],Not Active
5,CC(C)(C(=O)O)c1ccc(C(O)CCCN2CCC(C(O)(c3ccccc3)c3ccccc3)CC2)cc1 (stereo not drawn) [FEXOFENADINE],Not Active
6,CN1CCN(c2c(F)cc3c(=O)c(C(=O)O)cn(CCF)c3c2F)CC1 [FLEROXACIN],Not Active

# Tested on: not listed separately
# Test: DRUGMATRIX: Phorbol Ester radioligand binding (ligand: [3H] PDBu)
# Assay type: cell membranes, Mus musculus, ICR, Brain, Membrane
# Details: Not Active = under 50% inhibition at 10 µM
SMILES,IC50,Ki
CC(C)C[C@H]1C(=O)N2CCC[C@H]2[C@]2(O)O[C@](NC(=O)[C@@H]3C=C4c5cccc6[nH]cc(c56)C[C@H]4N(C)C3)(C(C)C)C(=O)N12 [ERGOCRYPTINE],Not Active,Not Active
C[C@]12CC[C@@H]3c4ccc(O)cc4CC[C@H]3[C@@H]1C[C@@H](O)[C@@H]2O [ESTRIOL],Not Active,Not Active
C#C[C@]1(O)CC[C@H]2[C@@H]3CCC4=CC(=O)CC[C@]4(C)[C@H]3CC[C@@]21C [ETHISTERONE],Not Active,Not Active
CC(O)(P(=O)(O)O)P(=O)(O)O [ETIDRONIC ACID],Not Active,Not Active
CC(C)(C(=O)O)c1ccc(C(O)CCCN2CCC(C(O)(c3ccccc3)c3ccccc3)CC2)cc1 (stereo not drawn) [FEXOFENADINE],Not Active,Not Active
CN1CCN(c2c(F)cc3c(=O)c(C(=O)O)cn(CCF)c3c2F)CC1 [FLEROXACIN],Not Active,Not Active
